Measurements as given in paper PMC3004533 (Chemico-biological interactions, 2010).

Target: T1, COX-2 (cyclooxygenase-2) (Homo sapiens, UniProt P35354)
T1 sequence (P35354 18-604): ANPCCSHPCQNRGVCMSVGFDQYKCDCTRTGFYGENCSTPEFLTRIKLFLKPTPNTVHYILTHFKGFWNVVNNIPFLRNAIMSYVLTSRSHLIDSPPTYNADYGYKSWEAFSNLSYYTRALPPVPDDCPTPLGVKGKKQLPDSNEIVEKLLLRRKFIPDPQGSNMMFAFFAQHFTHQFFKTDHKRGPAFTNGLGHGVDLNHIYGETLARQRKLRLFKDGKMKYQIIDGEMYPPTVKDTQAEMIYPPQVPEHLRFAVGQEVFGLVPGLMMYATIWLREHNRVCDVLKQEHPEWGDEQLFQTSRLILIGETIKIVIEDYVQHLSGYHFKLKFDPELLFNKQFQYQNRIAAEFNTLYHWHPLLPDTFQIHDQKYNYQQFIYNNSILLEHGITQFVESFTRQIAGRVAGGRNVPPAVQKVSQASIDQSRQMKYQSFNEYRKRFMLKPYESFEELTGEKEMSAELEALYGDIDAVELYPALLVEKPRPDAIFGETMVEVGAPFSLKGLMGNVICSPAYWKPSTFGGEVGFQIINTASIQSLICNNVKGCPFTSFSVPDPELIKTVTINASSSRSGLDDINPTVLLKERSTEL
Assay type: biochemical
Conditions: read-out: Ki

SMILES | KI (inactivation) [µM]
C[Se]Cc1ccc(-c2cc(C(F)(F)F)nn2-c2ccc(S(N)(=O)=O)cc2)cc1 [selenocoxib-3, 4-[5-(4-Methylseleanylmethyl-phenyl)-3-trifluoromethyl-pyrazol-1-yl]-benezenesulfonamide] | 2.4
Cc1ccc(-c2cc(C[Se]C#N)nn2-c2ccc(S(N)(=O)=O)cc2)cc1 [selenocoxib-2, 4-(3-Selenocyanatomethyl-5-p-tolyl-1-yl)-benzenesulfonamide] | 0.73
